Laboratory results: US11357734B2, “Pharmaceutical granulations of water-soluble active pharmaceutical ingredients” (XWPHARMA LTD., priority 2020, dated 2022)

Columns and labels:
Type in all cases: physicochemical
Hausner Ratio (USP 1174) = settings: active pharmaceutical ingredient used in Example 13
Description: The Hausner Ratio can be determined according to USP 1174.

[1] = Specific surface area by laser diffraction
Experimental: Specific surface area can be determined by laser diffraction.
The specific surface area distributions of as-crystallized active pharmaceutical ingredient and jet-milled active pharmaceutical ingredient was determined by laser diffraction. […] In other samples, the jet milled active pharmaceutical ingredient was characterized by a specific surface area of 1174 m^2/kg.

[2] = Tapped bulk density (USP 616); settings: active pharmaceutical ingredient used in Example 13
Description: Tapped bulk density can be determined according to USP 616.

[3] = Particle size distribution by laser diffraction
Description: The parameter D90 refers to the point in the size distribution of a sample, up to and including which, 90% of the total volume of material in the sample is contained. For example for a D90 of 400 μm, 90% of the sample volume has a size of 400 μm or less. D50 is the size below which 50% of the total volume of material in the sample is contained. Similarly, D10 refers to the size below which 10% of the total volume of material in the sample is contained. The volume distribution of the sample can be determined by laser diffraction or by sieve analysis.
A particle size distribution can be determined by laser diffraction or by sieve analysis.
FIGS. 15 and 16 show a particle size distribution of as-crystallized active pharmaceutical ingredient and jet-milled active pharmaceutical ingredient, respectively, as determined by laser diffraction. The PSD of the as-crystallized active pharmaceutical ingredient was characterized by a D10 of 11.8 μm, a D50 of 34.0 μm, and a D90 of 72.3 μm. The PSD of the jet-milled active pharmaceutical ingredient was characterized by a D10 of 7.8 μm, a D50 of 16.1 μm, and a D90 of 21.5 μm.

[4] = Bulk density (USP 616, Method 1; bulk density cylinder)
Description: Bulk density can be determined according to USP 616, Method 1.
Bulk density can be determined using a bulk density cylinder.

[5] = active pharmaceutical ingredient used in Example 13
[6] = FIGS. 15 and 16, laser diffraction, listed as as-crystallized active pharmaceutical ingredient
[7] = FIGS. 15 and 16, laser diffraction, listed as jet-milled active pharmaceutical ingredient

| Structure (SMILES) | Hausner Ratio (Hausner Ratio (USP 1174)) | specific surface area [1, 5] | specific surface area ([1]; laser diffraction, listed as as-crystallized active pharmaceutical ingredient) | API Tapped Bulk Density [2] | PSD D10 [3, 6] | PSD D50 [3, 6] | PSD D90 [3, 6] | PSD D10 [3, 5] | PSD D50 [3, 5] | PSD D90 [3, 5] | API Bulk Density [4, 5] | specific surface area ([1]; in other samples) | specific surface area ([1]; laser diffraction, listed as jet-milled active pharmaceutical ingredient) | PSD D10 [3, 7] | PSD D50 [3, 7] | PSD D90 [3, 7] | API Bulk Density ([4]; Jet Milled API used for granulation (13)) | bulk density ([4]; active pharmaceutical ingredient of Example 9, before Comil) | bulk density ([4]; active pharmaceutical ingredient used in Examples 1-6) |
| --- | --- | --- | --- | --- | --- | --- | --- | --- | --- | --- | --- | --- | --- | --- | --- | --- | --- | --- | --- |
| CC(C)[C@H](N)C(=O)OCCCC(=O)O [As-Crystallized, 4-((L-valyl)oxy)butanoic acid] | 1.85 | 291 m^2/kg | 291 m^2/kg | 0.38 g/mL | 11.8 μm | 34.0 μm | 72.3 μm | 12 μm | 34 μm | 71 μm | 0.20 g/mL | – | – | – | – | – | – | – | – |
| CC(C)[C@H](N)C(=O)OCCCC(=O)O [Jet-Milled, 4-((L-valyl)oxy)butanoic acid] | 1.700 | 478 m^2/kg | – | 0.20 g/mL | – | – | – | 8 μm | 16 μm | 28 μm | 0.12 g/mL | 1174 m^2/kg | 478 m^2/kg | 7.8 μm | 16.1 μm | 21.5 μm | 0.12 g/mL | – | – |
| CC(C)[C@H](N)C(=O)OCCCC(=O)O [active pharmaceutical ingredient, 4-((L-valyl)oxy)butanoic acid] | – | – | – | – | – | – | – | – | – | – | – | – | – | – | – | – | – | 0.263 g/mL | 0.15 g/mL |
